In the NIST ThermoML archive (doi:10.1016/j.jct.2011.08.016):

Details: Liquid, Vibrating tube method

CCCCCCCCCC [decane]
mass density [kg/m3]
Details	313.07 K	323 K	332.87 K	342.78 K	352.8 K	362.73 K
1000 kPa	715.64	707.96	700.33	692.65	–	–
2000 kPa	716.68	708.93	701.26	693.68	686.08	678.44
3000 kPa	717.38	709.81	702.21	694.72	687.17	679.58
4000 kPa	718.16	710.88	703.17	695.7	688.23	680.71
5000 kPa	719.02	711.52	704.12	696.68	689.3	681.85
6000 kPa	719.65	712.48	705.07	697.68	690.33	682.98
7000 kPa	720.52	713.3	705.98	698.61	691.38	684.09
8000 kPa	721.28	714.23	706.88	699.57	692.38	685.16
9000 kPa	722.11	715.05	707.79	700.54	693.41	686.25
10000 kPa	723.13	715.91	708.65	701.49	694.37	687.29
11000 kPa	723.65	716.74	709.52	702.4	695.36	688.32
12000 kPa	724.48	717.54	710.39	703.29	696.32	689.33
13000 kPa	725.48	718.35	711.26	704.14	697.29	690.34
14000 kPa	726.15	719.15	712.07	705.05	698.22	691.28
15000 kPa	726.86	719.92	712.9	705.93	699.15	692.36
16000 kPa	727.49	720.7	713.71	706.79	700.03	–
17000 kPa	728.18	721.46	714.52	707.6	700.94	–
18000 kPa	729.07	722.22	715.32	–	701.82	–
18010 kPa	–	–	–	708.57	–	–
19000 kPa	729.72	722.97	716.1	709.45	702.71	–
20000 kPa	730.26	723.71	716.88	710.3	703.59	–
21000 kPa	731.22	724.45	717.65	710.91	704.44	–
22000 kPa	731.8	725.18	718.43	711.92	705.25	–
23000 kPa	732.7	725.92	719.19	712.48	706.14	–
24000 kPa	733.26	726.62	719.99	713.42	706.95	–
25000 kPa	733.93	727.42	720.76	714.1	707.83	–
